From US11331102B2, “Purified pentagalloyl glucose and devices for delivery” (Nectero Medical, Inc., priority 2018, dated 2022)

test: studies of the concentration at which PGG of a given purity may be safely delivered; conditions: depends on purity of the PGG; toxic impurities gallic acid and methyl gallate
Text: The concentrations of PGG which may be safely delivered to a patient may be generally proportional to the purity of the PGG. For example, gallic acid, depicted in FIG. 1B, and methyl gallate, depicted in FIG. 1C, are common cytotoxic impurities which may be removed from a source batch of PGG during the purification process. Eliminating the presence of or reducing the concentration of toxic impurities from the delivered PGG may allow higher concentrations of the PGG to be delivered due to the mitigation of the toxic side effects of impurities commonly found in isolated PGG. For instance, studies have shown that substantially 100% pure PGG may be safely delivered at concentrations up to approximately 0.330% (w/v), 95% pure PGG may be safely delivered at concentrations up to approximately 0.125% (w/v), and 85% pure PGG may be safely delivered at concentrations up to approximately 0.06% (w/v). Delivery of PGG in higher concentrations may enhance the amount of uptake of PGG by the target tissue which may increase the efficacy of the PGG treatment. Delivery of PGG in higher concentrations may increase the rate of uptake of PGG by the tissue allowing the same amount of uptake in shorter delivery times. Reducing or minimizing the delivery time may be advantageous for reducing the overall treatment time, and particularly the duration of time for which a blood vessel, such as the aorta, is potentially occluded, as described elsewhere herein. Minimization of the treatment time and particularly the duration of blood occlusion may improve the safety and convenience of the treatment procedure and improve patient outcomes.

Row | Substance | concentration up to which PGG may be safely delivered
1 | 1,2,3,4,6-pentagalloyl glucose [85% pure PGG] | ≤ 0.06 % (w/v)
2 | 1,2,3,4,6-pentagalloyl glucose [95% pure PGG] | ≤ 0.125 % (w/v)
3 | 1,2,3,4,6-pentagalloyl glucose [substantially 100% pure PGG] | ≤ 0.330 % (w/v)
